Results taken from ChEMBL document CHEMBL1146729, “Rational design and synthesis of novel heparan sulfate mimetic compounds as antiadhesive agents” (Bioorg Med Chem Lett, 2004).

Columns and labels:
[1] = molecular target: Coagulation factor X (Homo sapiens, UniProt P00742); experiment: Inhibition of Coagulation factor X at 100 uM; No inhibition
[2] = tested on: HT-1080; experiment: Compound (100 uM) was tested for percent inhibition against adhesion of human HT1080 cells; No inhibition; assay type: functional, cell-based
[3] = molecular target: Matrix metalloproteinase-9 (Homo sapiens, UniProt P14780); experiment: Inhibition of matrix metalloprotease-9 at 100 uM (inactive)
Chain of Matrix metalloproteinase-9 (P14780 whole entry): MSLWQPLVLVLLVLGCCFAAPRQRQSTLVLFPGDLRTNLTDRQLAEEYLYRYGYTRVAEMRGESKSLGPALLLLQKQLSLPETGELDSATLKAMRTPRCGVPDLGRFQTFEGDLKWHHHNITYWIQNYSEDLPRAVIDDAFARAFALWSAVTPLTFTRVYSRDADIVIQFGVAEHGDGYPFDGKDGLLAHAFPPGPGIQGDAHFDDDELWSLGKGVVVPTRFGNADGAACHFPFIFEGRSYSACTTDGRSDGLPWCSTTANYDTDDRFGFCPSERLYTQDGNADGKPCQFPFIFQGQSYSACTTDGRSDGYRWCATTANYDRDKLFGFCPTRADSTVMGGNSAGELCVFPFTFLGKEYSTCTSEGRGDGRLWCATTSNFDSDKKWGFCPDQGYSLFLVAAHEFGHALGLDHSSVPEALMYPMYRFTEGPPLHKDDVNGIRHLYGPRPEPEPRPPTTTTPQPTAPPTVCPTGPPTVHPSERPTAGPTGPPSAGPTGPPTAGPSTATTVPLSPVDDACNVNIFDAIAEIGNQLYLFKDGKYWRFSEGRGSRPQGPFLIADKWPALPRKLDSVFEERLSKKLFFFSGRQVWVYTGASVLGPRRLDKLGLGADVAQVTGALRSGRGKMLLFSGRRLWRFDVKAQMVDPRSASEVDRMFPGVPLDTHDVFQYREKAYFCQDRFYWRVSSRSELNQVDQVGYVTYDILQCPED

[4] = molecular target: T1, Heparanase (Homo sapiens, UniProt Q9Y251); experiment: Inhibitory concentration against heparanase; No inhibition
T1 sequence (Q9Y251 whole entry): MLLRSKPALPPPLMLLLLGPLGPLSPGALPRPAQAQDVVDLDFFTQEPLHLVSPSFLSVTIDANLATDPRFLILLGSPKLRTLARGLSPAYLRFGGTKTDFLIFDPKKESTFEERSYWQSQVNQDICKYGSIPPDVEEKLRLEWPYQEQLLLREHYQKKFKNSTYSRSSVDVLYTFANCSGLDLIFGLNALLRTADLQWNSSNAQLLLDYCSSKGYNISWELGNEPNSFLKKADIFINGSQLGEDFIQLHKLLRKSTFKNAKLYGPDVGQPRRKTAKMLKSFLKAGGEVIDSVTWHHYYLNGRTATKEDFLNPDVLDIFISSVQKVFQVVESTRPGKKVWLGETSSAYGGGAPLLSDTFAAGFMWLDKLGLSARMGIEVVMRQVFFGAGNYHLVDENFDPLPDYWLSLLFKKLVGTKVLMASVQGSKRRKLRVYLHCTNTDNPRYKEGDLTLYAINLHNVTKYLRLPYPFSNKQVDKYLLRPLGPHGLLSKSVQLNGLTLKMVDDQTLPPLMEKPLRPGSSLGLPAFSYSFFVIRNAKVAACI

[5] = molecular target: Prothrombin (Homo sapiens, UniProt P00734); experiment: Compound (100 uM) was tested for inhibitory activity against thrombin; No inhibition
[6] = molecular target: Serine protease 1 (Homo sapiens, UniProt P07477); experiment: Inhibitory activity against trypsin at 100 uM; No inhibition
Chain of Serine protease 1 (P07477 whole entry): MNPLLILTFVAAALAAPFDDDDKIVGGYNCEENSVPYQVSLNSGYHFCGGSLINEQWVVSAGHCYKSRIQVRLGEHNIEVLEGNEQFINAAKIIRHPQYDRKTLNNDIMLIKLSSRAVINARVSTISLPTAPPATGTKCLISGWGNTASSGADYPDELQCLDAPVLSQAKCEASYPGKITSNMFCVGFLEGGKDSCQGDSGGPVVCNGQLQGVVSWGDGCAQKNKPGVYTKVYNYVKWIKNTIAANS

[7] = molecular target: 72 kDa type IV collagenase (Homo sapiens, UniProt P08253); experiment: Inhibition of matrix metalloprotease-2 at 100 uM (inactive)
Chain of 72 kDa type IV collagenase (P08253 whole entry): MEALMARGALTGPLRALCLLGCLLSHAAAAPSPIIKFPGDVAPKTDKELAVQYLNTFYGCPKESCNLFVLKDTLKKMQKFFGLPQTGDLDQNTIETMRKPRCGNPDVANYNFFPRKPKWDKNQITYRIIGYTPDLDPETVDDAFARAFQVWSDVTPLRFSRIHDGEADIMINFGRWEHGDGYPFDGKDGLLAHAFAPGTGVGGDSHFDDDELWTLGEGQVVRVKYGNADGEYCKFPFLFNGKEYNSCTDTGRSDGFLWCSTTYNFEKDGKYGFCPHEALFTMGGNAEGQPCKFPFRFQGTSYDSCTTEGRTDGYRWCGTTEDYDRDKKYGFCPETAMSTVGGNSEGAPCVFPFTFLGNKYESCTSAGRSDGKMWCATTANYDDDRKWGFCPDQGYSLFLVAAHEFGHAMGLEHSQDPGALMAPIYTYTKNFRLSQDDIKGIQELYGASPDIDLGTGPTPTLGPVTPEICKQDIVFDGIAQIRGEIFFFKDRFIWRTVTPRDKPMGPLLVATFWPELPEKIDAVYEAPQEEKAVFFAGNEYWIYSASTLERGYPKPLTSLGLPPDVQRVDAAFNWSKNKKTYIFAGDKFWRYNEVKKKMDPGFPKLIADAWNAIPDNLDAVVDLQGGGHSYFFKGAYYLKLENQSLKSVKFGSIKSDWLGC

[8] = molecular target: T2, Collagenase ColA (Bacteria, UniProt P43153); experiment: Inhibition of collagenase at 100 uM (No inhibition); design: species or system Hathewaya histolytica
T2 sequence (P43153 whole entry): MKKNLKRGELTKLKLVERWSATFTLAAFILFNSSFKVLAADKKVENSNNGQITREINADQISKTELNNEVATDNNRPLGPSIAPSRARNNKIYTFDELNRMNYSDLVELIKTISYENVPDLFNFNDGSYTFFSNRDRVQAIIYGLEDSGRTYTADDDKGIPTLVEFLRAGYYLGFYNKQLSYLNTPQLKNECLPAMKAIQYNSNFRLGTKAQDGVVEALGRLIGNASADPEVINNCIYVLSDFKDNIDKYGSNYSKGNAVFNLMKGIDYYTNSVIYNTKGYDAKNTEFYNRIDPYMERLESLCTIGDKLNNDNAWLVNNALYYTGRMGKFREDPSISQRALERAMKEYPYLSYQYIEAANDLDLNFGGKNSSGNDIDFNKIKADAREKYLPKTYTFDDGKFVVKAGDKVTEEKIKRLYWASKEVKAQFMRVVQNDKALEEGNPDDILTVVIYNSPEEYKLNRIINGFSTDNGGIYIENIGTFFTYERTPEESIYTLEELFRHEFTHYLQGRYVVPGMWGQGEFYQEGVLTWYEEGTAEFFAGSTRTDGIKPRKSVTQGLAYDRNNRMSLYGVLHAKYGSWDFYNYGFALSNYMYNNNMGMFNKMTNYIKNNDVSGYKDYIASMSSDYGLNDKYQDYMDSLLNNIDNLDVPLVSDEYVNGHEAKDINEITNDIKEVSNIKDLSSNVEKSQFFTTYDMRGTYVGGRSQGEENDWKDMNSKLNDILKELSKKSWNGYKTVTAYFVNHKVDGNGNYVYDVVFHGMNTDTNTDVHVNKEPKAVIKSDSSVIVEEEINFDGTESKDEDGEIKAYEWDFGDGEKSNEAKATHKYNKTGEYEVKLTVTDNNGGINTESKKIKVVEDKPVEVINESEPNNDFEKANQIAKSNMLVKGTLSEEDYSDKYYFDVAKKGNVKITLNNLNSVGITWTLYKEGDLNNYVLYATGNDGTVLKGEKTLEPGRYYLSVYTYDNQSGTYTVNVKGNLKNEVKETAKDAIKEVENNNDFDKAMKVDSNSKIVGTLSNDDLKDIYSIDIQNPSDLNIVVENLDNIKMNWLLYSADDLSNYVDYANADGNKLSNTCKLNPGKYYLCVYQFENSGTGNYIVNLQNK

[9] = tested on: HeLa; experiment: Compound (100 uM) was tested for percent inhibition against adhesion of human HeLa cells; No inhibition; assay type: functional, cell-based
[10] = molecular target: T3, Integrin alpha-5/beta-1 (Homo sapiens, UniProt P05556+P08648); experiment: Inhibition of human A431 cell adhesion to fibronectin; assay type: functional, cell-based, A-431
T3 sequence (P05556 21-798 limits assumed): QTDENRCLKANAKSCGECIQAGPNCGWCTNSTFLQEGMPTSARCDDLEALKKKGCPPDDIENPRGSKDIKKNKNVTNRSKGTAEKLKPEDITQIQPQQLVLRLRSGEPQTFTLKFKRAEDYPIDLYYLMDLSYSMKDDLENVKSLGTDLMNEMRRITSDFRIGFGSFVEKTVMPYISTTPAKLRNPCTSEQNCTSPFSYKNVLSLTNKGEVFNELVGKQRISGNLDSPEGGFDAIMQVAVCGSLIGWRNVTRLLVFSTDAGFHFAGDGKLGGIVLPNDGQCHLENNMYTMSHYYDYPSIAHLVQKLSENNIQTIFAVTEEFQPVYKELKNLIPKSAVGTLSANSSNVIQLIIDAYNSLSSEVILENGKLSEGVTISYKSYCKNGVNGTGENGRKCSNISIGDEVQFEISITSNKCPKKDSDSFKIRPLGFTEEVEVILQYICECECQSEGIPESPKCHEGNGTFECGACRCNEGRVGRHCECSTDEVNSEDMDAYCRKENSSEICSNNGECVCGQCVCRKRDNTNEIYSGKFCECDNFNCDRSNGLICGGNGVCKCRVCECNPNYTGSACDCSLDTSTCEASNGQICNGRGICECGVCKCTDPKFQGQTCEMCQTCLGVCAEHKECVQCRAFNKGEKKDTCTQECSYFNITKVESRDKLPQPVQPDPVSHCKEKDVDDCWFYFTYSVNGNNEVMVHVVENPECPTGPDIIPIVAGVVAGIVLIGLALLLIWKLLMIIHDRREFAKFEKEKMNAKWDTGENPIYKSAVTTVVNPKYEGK
T3 sequence (P08648 42-894 limits assumed): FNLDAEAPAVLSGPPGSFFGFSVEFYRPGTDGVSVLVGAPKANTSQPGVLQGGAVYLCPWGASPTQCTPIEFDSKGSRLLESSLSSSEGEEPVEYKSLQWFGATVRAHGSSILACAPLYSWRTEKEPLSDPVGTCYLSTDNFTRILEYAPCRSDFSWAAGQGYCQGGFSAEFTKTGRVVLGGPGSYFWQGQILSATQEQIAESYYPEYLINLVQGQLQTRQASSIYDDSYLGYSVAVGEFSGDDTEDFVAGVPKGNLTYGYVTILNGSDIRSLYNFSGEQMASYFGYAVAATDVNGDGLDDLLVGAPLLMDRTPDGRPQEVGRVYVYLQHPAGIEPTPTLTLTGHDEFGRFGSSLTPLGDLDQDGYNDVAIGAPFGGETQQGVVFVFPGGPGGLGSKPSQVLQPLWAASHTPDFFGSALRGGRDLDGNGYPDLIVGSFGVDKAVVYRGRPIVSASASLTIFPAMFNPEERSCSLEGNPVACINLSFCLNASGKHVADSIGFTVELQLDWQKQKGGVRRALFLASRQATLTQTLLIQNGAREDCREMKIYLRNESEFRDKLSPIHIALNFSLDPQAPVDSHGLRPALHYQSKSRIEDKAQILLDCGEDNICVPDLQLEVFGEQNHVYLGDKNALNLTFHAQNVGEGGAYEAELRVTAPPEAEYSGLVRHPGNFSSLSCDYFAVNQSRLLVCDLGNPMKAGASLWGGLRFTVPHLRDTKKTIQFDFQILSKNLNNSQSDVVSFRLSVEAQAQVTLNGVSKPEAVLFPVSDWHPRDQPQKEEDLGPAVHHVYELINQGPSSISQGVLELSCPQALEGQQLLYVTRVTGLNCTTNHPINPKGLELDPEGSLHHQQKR
T3 sequence (P08648 895-1049 limits assumed): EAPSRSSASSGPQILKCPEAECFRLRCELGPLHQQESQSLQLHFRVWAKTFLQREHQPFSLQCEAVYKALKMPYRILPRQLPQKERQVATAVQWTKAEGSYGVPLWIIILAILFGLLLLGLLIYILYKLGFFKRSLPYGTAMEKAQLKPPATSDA

[11] = tested on: HT-1080; experiment: Compound was tested for inhibitory activity against invasion of human HT1080 cells; assay type: functional, cell-based
[12] = molecular target: T3, Integrin alpha-5/beta-1; experiment: Inhibition of human HeLa cell adhesion to fibronectin; assay type: functional, cell-based
[13] = tested on: HT-1080; experiment: Compound was tested for inhibitory activity against adhesion of human collagen IV/HT1080 cell; assay type: functional, cell-based
[14] = molecular target: T3, Integrin alpha-5/beta-1; experiment: Inhibition of human HT1080 cell adhesion to fibronectin; assay type: functional, cell-based, HT-1080
[15] = tested on: HT-1080; experiment: Compound was tested for inhibitory activity against migration of human HT1080 cells; assay type: functional, cell-based
[16] = tested on: HT-1080; experiment: Compound was tested for inhibitory activity against adhesion of human laminin/HT1080 cells; assay type: functional, cell-based
[17] = tested on: HT-1080; experiment: Compound (100 uM) was tested for percent inhibition against adhesion of human HT1080 cells; assay type: functional
[18] = tested on: HT-1080; experiment: Compound was tested for inhibitory activity against growth of human HT1080 cells; assay type: functional, cell-based
[19] = tested on: HeLa; experiment: Compound (100 uM) was tested for percent inhibition against adhesion of human HeLa cells; assay type: functional
[20] = tested on: HT-1080; experiment: Compound was tested for inhibitory activity against adhesion of human Plastic/HT1080 cells; assay type: functional, cell-based
[21] = molecular target: T1, Heparanase; experiment: Compound was tested for inhibitory activity against heparanase

Chain of Coagulation factor X (P00742 41-179 limits assumed): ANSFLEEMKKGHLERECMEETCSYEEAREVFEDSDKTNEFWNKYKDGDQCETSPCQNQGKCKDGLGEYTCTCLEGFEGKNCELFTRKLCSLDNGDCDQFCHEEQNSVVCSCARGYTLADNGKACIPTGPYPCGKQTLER
Chain of Coagulation factor X (P00742 235-488 limits assumed): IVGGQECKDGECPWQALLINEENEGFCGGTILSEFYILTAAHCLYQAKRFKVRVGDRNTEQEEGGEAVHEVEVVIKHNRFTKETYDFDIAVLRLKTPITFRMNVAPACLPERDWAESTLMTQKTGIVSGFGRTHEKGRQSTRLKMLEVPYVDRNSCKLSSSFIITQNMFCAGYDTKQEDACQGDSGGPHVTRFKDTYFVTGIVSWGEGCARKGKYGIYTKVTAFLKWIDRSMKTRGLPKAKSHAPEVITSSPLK

| SMILES | IC50 [1] | IC50 [2] | IC50 [3] | IC50 [4] | IC50 [5] | IC50 [6] | IC50 [7] | IC50 [8] | IC50 [9] | also measured |
| --- | --- | --- | --- | --- | --- | --- | --- | --- | --- | --- |
| O=C(O)CC(Sc1ccc(C(=O)c2ccccc2C(=O)O)cc1[N+](=O)[O-])C(=O)O (stereo not drawn) | Not Active | Not Active | Not Active | Not Active | Not Active | Not Active | Not Active | Not Active | Not Active |  |
| CC(=O)OC(=O)c1ccccc1C(=O)c1ccc(F)c([N+](=O)[O-])c1 | Not Active |  | Not Active | Not Active | Not Active | Not Active | Not Active | Not Active |  | IC50 [10]: 8 µM; IC50 [11]: 2 µM; IC50 [12]: 16 µM; IC50 [13]: 43 µM; IC50 [14]: 7 µM; IC50 [15]: 2 µM; IC50 [16]: 17 µM; Inhibition [17]: 89%; IC50 [18]: 10 µM; Inhibition [19]: 85%; IC50 [20]: 5 µM |
| CC(=O)OC(=O)c1ccccc1C(=O)c1ccc(Sc2ccccc2)c([N+](=O)[O-])c1 | Not Active | Not Active | Not Active | Not Active | Not Active | Not Active | Not Active | Not Active | Not Active |  |
| CCOc1ccc(C(=O)c2ccccc2C(=O)O)cc1[N+](=O)[O-] | Not Active | Not Active | Not Active | Not Active | Not Active | Not Active | Not Active | Not Active | Not Active |  |
| CCSc1ccc(C(=O)c2ccccc2C(=O)O)cc1[N+](=O)[O-] | Not Active | Not Active | Not Active | Not Active | Not Active | Not Active | Not Active | Not Active | Not Active |  |
| O=C(O)c1ccccc1C(=O)c1ccc(F)c([N+](=O)[O-])c1 | Not Active | Not Active | Not Active | Not Active | Not Active | Not Active | Not Active | Not Active | Not Active |  |
| O=C(O)c1ccccc1C(=O)c1ccc(Oc2ccccc2)c([N+](=O)[O-])c1 | Not Active | Not Active | Not Active | Not Active | Not Active | Not Active | Not Active | Not Active | Not Active |  |
| O=C(O)c1ccc(Sc2ccc(C(=O)c3ccccc3C(=O)O)cc2[N+](=O)[O-])cc1 | Not Active | Not Active | Not Active | Not Active | Not Active | Not Active | Not Active | Not Active | Not Active |  |
| CCNc1ccc(C(=O)c2ccccc2C(=O)O)cc1[N+](=O)[O-] | Not Active | Not Active | Not Active | Not Active | Not Active | Not Active | Not Active | Not Active | Not Active |  |
| O=C(O)c1ccccc1C(=O)c1ccc(F)cc1 | Not Active | Not Active | Not Active | Not Active | Not Active | Not Active | Not Active | Not Active | Not Active |  |
| O=C(O)c1ccccc1C(=O)c1ccc(NC2CCCCC2)c([N+](=O)[O-])c1 | Not Active | Not Active | Not Active | Not Active | Not Active | Not Active | Not Active | Not Active | Not Active |  |
| O=C(O)c1ccccc1C(=O)c1ccc(Sc2ccccc2)c([N+](=O)[O-])c1 | Not Active | Not Active | Not Active | Not Active | Not Active | Not Active | Not Active | Not Active | Not Active | IC50 [21]: 300 µM |
